Test results published in US11767296B2, “Heteroaryl compounds as kinase inhibitor” (FUJIAN HAIXI PHARMACEUTICALS CO., LTD, priority 2018, dated 2023).

What was measured:
[1] = biological target: T1, CSF-1R (Homo sapiens, UniProt P07333); assay: CSF-1R kinase assay (HTRF kinEASE TK); assay type: biochemical; details: ATP 2.5 uM, enzyme 0.012 ng/ul, read-out: In vitro inhibitory activity of CSF-1R IC50
T1 construct: purchased Invitrogen PV3249
Experimental: Example 53: CSF-1R Kinase Assay
I. Materials and Instruments
• 2104 EnVision® Multilabel Reader (PerkinElmer) • OptiPlate-384, White Opaque 384-well MicroPlate (Cat.6007290, PerkinElmer) • HTRF kinEASE TK (Cat.62TKOPEC, Cisbio) • CSF-1R(Cat. PV3249, Invitrogen) • ATP 10 mM (Cat. PV3227, Invitrogen) • DTT 1 M (Cat. D5545, Sigma) • MgCl2 1 M (Cat. M8266, Sigma) • MnCl2 1 M (Cat.244589. Sigma)
II. Experimental Procedure
Substrate-TK and ATP were diluted to 5 times of the reaction concentration by 1×Kinase Buffer. CSF1R enzyme was diluted to 5×enzyme solution by 1×kinase buffer. Sa-XL665 was diluted to 4×Sa-XL665 solution by Detection Buffer. 100×TK-Ab-Cryptate Solution TK-Ab-Cryptate was diluted to 100×TK-Ab-Cryptate solution by Detection Buffer. 2. Experimental Procedure After all reagents had been prepared according to the above method, except enzymes, the sample was added after equilibrium to room temperature. • a. Firstly, 2.5% DMSO solution was prepared by using 1×kinase buffer (the high concentration of DMSO will affect the reaction and control the final concentration of DMSO to 1%). Then the compounds were diluted by 2.5% DMSO solution corresponding to the enzyme. The screening concentration of the compounds was 4 times gradient dilution from 1000 nM, and 8 concentrations. In addition to the control pore, 4 microlitres of diluted solution containing 2.5% DMSO were added to the reaction pore and 4 microlitres of previously prepared solution containing 2.5% DMSO were added to the control pore. • b. 2 microlitres of previously prepared TK-biotin substrate solution was added to all reaction pore (the amount of substrate used for enzyme screening is shown in Table 15). • c. Adding 2 microlitres of CSF1R enzyme solution of corresponding concentration (the amount of enzyme is shown in Table 15) to all reaction pore except negative pore. The negative pore is supplemented with 2 microlitres of enzyme corresponding to 1 xkinase buffer. After mixing, the compound and enzyme can be fully combined by incubating at room temperature for 10 minutes. • d. Enzyme reaction was initiated by adding 2 microlitres ATP solution of corresponding concentration to all reaction pore. The reaction time was 30 minutes (the corresponding ATP concentration and reaction time at enzyme screening were shown in Table 15). • e. Preparing the test solution 5 minutes before the end of kinase reaction. Streptavidin-XL665 and TK antibody europium cryptate (1:100) were prepared with detection buffer in the kit (the corresponding concentration of detection reagent for enzyme screening is shown in Table 15). • f. After the kinase reaction, 5 microlitres of diluted Streptavidin-XL665 were added to all reaction pore, mixing, and then the diluted TK antibody europium cryptate solution was added immediately. • g. After 1 hour reaction at room temperature, the fluorescence signals (320 nm stimulation, 665 nm, 615 nm emission) were detected by ENVISION (Perkinelmer) instrument. The inhibition rate of each pore was calculated by full active pore and background signal pore, and the average value of complex pore was obtained. Meanwhile, the half inhibitory activity (IC50) of each compound was fitted by professional drawing analysis software PRISM 5.0. The Flow Chart of the Experiment is as Follows:
3. Data Analysis Emission Ratio (ER)=665 nm Emission signal/615 nm Emission signal Inhibitory rate=(ERpositive−ERsample)/(ERpositive−ERnegative)*100% Using Graphpad Prism 5 and log (inhibitor) vs. normalized response to fit IC50 curve and calculate IC50 value. The IC50 data of the compounds prepared in Representative Examples 3-52 are as follows (Table 18): […]

[2] = tested on: NFS-60 cells; assay: NFS-60 cell assay (CCK proliferation, M-CSF stimulated); assay type: cell-based; details: Mus musculus, compound 0.5 uM, 72 h, 40 ng/mL M-CSF, read-out: inhibition ratio % (NFS-60 cell proliferation)
Experimental: Example 54: NFS-60 Cell Assay
1. Experimental Materials
Mouse Myelogenous Leukemia Cells (NFS-60)
Using DMSO to dissolve, and the required concentration was prepared with full culture medium without factors.
Penicillin-streptomycin: TRANS
Mouse M-CSF/CSF-1 Protein: Sino Biological Inc, No. 51112-MNAH
M-CSF: Qilu Pharmaceutical co., Ltd.
The logarithmic growth phase of NFS-60 cells (1640+10% FBS+40 ng/ml M-CSF+1% Penicillin-streptomycin) were centrifuged (1000 r/min) and cultured in a factor-free medium at 37° C., 5% CO2 for 24 hours. Centrifugating (1000 r/min), the culture medium was replaced by new culture medium including 40 ng/mL factors, and inoculated on 96-well plate by 2*10^4 cells/mL, 100 μL/hole. After 16 hours, the tested compounds were added 10 μL/hole, 3 duplicate holes per compound, 37° C., 5% CO2, continue to cultured for 72 h. Then 10 μL CCK reagent was added to each hole. After incubation for 4 hours, the absorbance of each hole was measured at 450 nm wavelength. According to Formula: Inhibitory rate (%)=(1-OD value of test pore/OD value of solvent control pore)×100% 3. Experimental Results The experimental results of the inhibition of NFS-60 cell proliferation by the compounds prepared in Example 3-52, 0.5 uM, are shown in the following table: […]

[3] = tested on: MC-38 transplanted tumors; assay: Animal pharmacodynamics experiment: MC-38 transplanted tumors in C57 mice; assay type: in vivo; details: 2 weeks; for inhibition in vivo at 30 mg/kg: Mus musculus, MC-38, po, 336 h, compound alone, 30 mg/kg intragastrically daily, read-out: inhibition ratio (tumor size, MC-38 transplanted tumors); for inhibition ratio (tumor size, MC-38 transplanted tumors): compound 30 mg/kg intragastrically daily + anti-PD1 10 mg/kg i.p. once every 3 days
Experimental: Example 55: Animal Pharmacodynamics Experiment
In this study. MC-38 cell lines were inoculated in C57 mice
Experimental animal: C57 mice, male, 5-6 weeks old (18-22 g)
Inoculation: 2×10^6/0.1 mL, Matrigel is added in 3:1 ratio
PD1: InVivoMAb anti-mouse PD-1 (CD279). BioXCell
Group: On day 4 after inoculating, all the mice were divided into 13 groups, respectively model group, the anti-PD1 2 mg/kg group, anti-PD110 mg/kg group, testing compounds alone, and the tested compound combine with anti-PD1 10 mg/kg. Compounds were intragastrically administered daily at a dose of 30 mg/kg and anti-PD1 was intraperitoneally injected once every 3 days. The drug was administered continuously for 2 weeks. In model group, 80% glycerol+20% CMC-Na was given daily.
Results: The experimental results of anti-PD1 combined with the compounds prepared in the representative example 3-52 on the inhibition of tumor size of MC-38 transplanted tumors are as follows: […]

T1 sequence (P07333 20-972): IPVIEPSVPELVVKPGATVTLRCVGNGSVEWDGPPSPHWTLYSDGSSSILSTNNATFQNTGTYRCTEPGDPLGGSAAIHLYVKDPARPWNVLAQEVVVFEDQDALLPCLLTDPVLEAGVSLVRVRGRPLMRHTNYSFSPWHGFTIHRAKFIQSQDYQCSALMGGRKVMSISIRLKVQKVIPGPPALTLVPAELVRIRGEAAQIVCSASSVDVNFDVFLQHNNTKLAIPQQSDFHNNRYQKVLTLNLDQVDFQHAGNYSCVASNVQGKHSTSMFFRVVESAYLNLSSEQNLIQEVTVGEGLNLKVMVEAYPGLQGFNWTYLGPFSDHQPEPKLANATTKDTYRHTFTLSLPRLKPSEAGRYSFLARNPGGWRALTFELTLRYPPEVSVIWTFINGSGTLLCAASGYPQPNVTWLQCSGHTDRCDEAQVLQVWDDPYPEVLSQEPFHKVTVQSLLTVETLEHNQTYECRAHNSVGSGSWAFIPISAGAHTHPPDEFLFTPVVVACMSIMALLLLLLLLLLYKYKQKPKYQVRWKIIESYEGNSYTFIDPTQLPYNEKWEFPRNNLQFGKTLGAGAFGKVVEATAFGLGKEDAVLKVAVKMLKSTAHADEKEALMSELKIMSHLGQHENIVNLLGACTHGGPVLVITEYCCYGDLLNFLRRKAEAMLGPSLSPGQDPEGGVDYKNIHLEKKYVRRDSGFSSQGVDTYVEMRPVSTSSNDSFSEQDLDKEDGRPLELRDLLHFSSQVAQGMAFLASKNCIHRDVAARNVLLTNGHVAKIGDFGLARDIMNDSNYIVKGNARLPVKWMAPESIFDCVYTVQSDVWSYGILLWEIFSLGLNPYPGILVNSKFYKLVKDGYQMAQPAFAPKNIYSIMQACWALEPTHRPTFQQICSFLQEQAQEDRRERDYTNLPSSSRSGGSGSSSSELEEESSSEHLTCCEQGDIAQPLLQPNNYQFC

| Compound | IC50 [1] [µM] | inhibition at 0.5 µM [2] [%] | inhibition in vivo at 30 mg/kg [3] [%] | inhibition ratio (tumor size, MC-38 transplanted tumors) [3] |
| --- | --- | --- | --- | --- |
| C[C@@H](Oc1cc(Cl)cnc1N)c1cccc(NC(=O)c2cc(C(F)(F)F)cc(S(C)(=O)=O)c2)c1 [Compound 150, (R)-N-(3-(1-((2-amino-5-chloropyridin-3-yl)oxy)ethyl)-phenyl)-3-(methylsulfonyl)-5-(trifluoromethyl)benzamide] | – | ≥ 50 | – | – |
| Cc1cc(C)cc(C(=O)Nc2cccc([C@@H](C)Oc3cc(Cl)cnc3N)c2)c1 [Compound 137, (R)-N-(3-(1-((2-amino-5-chloropyridin-3-yl)oxy)ethyl)-phenyl)-3,5-dimethylbenzamide] | – | ≥ 50 | – | – |
| Cc1cccc(C(=O)Nc2cccc([C@@H](C)Oc3cc(Cl)cnc3N)c2)c1Cl [Compound 85, (R)-N-(3-(1-((2-amino-5-chloropyridin-3-yl)oxy)ethyl)-phenyl)-2-chloro-3-methylbenzamide] | ≤ 0.05 | – | < 10 | +++ (+++: ≥30%) |
| C[C@@H](Oc1cc(Cl)cnc1N)c1cccc(NC(=O)c2ccc3c(c2)S(=O)(=O)CC3)c1 [Compound 134, (R)-N-(3-(1-((2-amino-5-chloropyridin-3-yl)oxy)ethyl)-phenyl)-2,3-dihydrobenzo[b]thiophene-6-carboxamide 1,1-dioxide] | ≤ 0.05 | ≥ 50 | – | – |
| C[C@H](Oc1cc(Cl)cnc1N)c1cccc(NC(=O)c2cccc(C3CC3)c2)c1 [Compound 70, (S)-N-(3-(1-((2-amino-5-chloropyridin-3-yl)oxy)ethyl)-phenyl)-3-cyclopropylbenzamide] | – | ≥ 50 | – | – |
| C[C@@H](Oc1cc(-c2cnn(C)c2)cnc1N)c1cccc(NC(=O)c2cccc(C(F)(F)F)c2)c1 [Compound 169, (R)-N-(3-(1-((2-amino-5-(1-methyl-1H-pyrazol-4-yl)pyridin-3-yl)oxy)ethyl)phenyl)-3-(trifluoromethyl)benzamide] | – | ≥ 50 | – | – |
| Cc1ccc(C(=O)Nc2cccc([C@@H](C)Oc3cc(Cl)cnc3N)c2)cc1S(C)(=O)=O [Compound 126, (R)-N-(3-(1-((2-amino-5-chloropyridin-3-yl)oxy)ethyl)-phenyl)-4-methyl-3-(methylsulfonyl)benzamide] | – | ≥ 50 | – | – |
| C[C@@H](Oc1cc(-c2cccnc2)cnc1N)c1cccc(NC(=O)c2cccc(S(C)(=O)=O)c2)c1 [Compound 199, (R)-N-(3-(1-((6-amino-[3,3′-bipyridin]-5-yl)oxy)ethyl)phenyl)-3-(methylsulfonyl)benzamide] | – | ≥ 50 | – | – |
| C[C@@H](Oc1cc(-c2cnn(C3CC3)c2)cnc1N)c1cccc(NC(=O)c2cccc(N(C)C)c2)c1 [Compound 212, (R)-N-(3-(1-((2-amino-5-(1-cyclo-propyl-1H-pyrazol-4-yl)pyridin-3-yl)oxy)ethyl)phenyl)-3-(dimethyl-amino)benzamide] | – | ≥ 50 | – | – |

Further lines, with some results ahead:

| IC50 [1] [µM] | Compound | inhibition at 0.5 µM [2] [%] | inhibition in vivo at 30 mg/kg [3] [%] | inhibition ratio (tumor size, MC-38 transplanted tumors) [3] |
| --- | --- | --- | --- | --- |
| ≤ 0.05 | C[C@@H](Oc1cc(-c2cccnc2)cnc1N)c1cccc(NC(=O)c2cccc(N(C)C)c2)c1 [Compound 205, (R)-N-(3-(1-((6-amino-[3,3′-bipyridin]-5-yl)oxy)ethyl)phenyl)-3-(dimethylamino)benzamide] | ≥ 50 | – | – |
| ≤ 0.05 | Cc1cncc(C(=O)Nc2cccc([C@@H](C)Oc3cc(Cl)cnc3N)c2)c1 [Compound 83, (R)-N-(3-(1-((2-amino-5-chloropyridin-3-yl)oxy)ethyl)-phenyl)-5-methylnicotinamide] | – | < 10 | +++ (+++: ≥30%) |
| ≤ 0.05 | Cc1ccc(C(=O)Nc2cccc([C@@H](C)Oc3cc(Cl)cnc3N)c2)cc1C [Compound 132, (R)-N-(3-(1-((2-amino-5-chloropyridin-3-yl)oxy)ethyl)-phenyl)-3,4-dimethylbenzamide] | ≥ 50 | – | – |
| ≤ 0.05 | Cc1ccc(C(=O)Nc2cccc([C@@H](C)Oc3cc(-c4cccnc4)cnc3N)c2)cc1N(C)C [Compound 206, (R)-N-(3-(1-((6-amino-[3,3′-bipyridin]-5-yl)oxy)ethyl)phenyl)-3-(dimethylamino)-4-methylbenzamide] | ≥ 50 | – | – |
| ≤ 0.05 | CSc1cccc(C(=O)Nc2cccc([C@@H](C)Oc3cc(-c4cnn(C)c4)cnc3N)c2)c1 [Compound 180, (R)-N-(3-(1-((2-amino-5-(1-methyl-1H-pyrazol-4-yl)pyridin-3-yl)oxy)ethyl)phenyl)-3-(methylthio)benzamide] | ≥ 50 | – | – |
| ≤ 0.05 | COc1cccc(C(=O)Nc2cccc([C@@H](C)Oc3cc(Cl)cnc3N)c2)c1 [Compound 74, (R)-N-(3-(1-((2-amino-5-chloropyridin-3-yl)oxy)ethyl)-phenyl)-3-methoxybenzamide] | ≥ 50 | – | – |
| ≤ 0.05 | Cc1cccc(C(=O)Nc2cccc([C@H](C)Oc3cc(Cl)cnc3N)c2)c1 [Compound 54, (S)-N-(3-(1-((2-amino-5-chloropyridin-3-yl)oxy)ethyl)-phenyl)-3-methylbenzamide] | 10 to 50 | – | – |
| ≤ 0.05 | CSc1ccc(C(=O)Nc2cccc([C@@H](C)Oc3cc(-c4cnn(C)c4)cnc3N)c2)cc1 [Compound 181, (R)-N-(3-(1-((2-amino-5-(1-methyl-1H-pyrazol-4-yl)pyridin-3-yl)oxy)ethyl)phenyl)-4-(methylthio)benzamide] | ≥ 50 | – | – |
| ≤ 0.05 | C[C@@H](Oc1cc(-c2cnn(C)c2)cnc1N)c1cccc(NC(=O)c2cccc([S+](C)[O-])c2)c1 (stereo partly drawn) [Compound 367, N-(3-((R)-1-((2-amino-5-(1-methyl-1H-pyrazol-4-yl)pyridin-3-yl)oxy)ethyl)phenyl)-3-(methylsulfinyl)benzamide] | ≥ 50 | – | – |
